What was measured:
[1] = tested on: cultured fibroblasts; experiment: WST-based cell viability of cultured fibroblasts; parameters: species or system rat; details: EUK 100 μM, LA 500 μM
[2] = Body weight and fasting plasma parameters in diabetic and hypercortisolemic rats; assay type: in vivo, rat
Method: All animal procedures were performed in accordance with the NIH Guidance for the Care and Use of Laboratory Animals. The current study used, respectively the GK and Dexamethasone-treated rats as models for diabetes and hypercortisolemia. Dexamethasone was administered subcutaneously at a dose of 2.5 μg/kg body weight in the morning (8:00 AM) and in the evening (8:00 PM) for a duration of four weeks before wounding and this form of therapy continued during the course of healing. […] Weight and age-matched female Wistar rats (Kuwait University breeding colony) served as the corresponding controls. All of the animals were maintained under standard conditions with 12 hours on/off light cycle, commercial diet, and water ad libitum. GK rats destined for wounding were initially matched with regard to body weight (e.g., 230 to 250 g), and plasma levels of glucose, free fatty acids and insulin. These indices are commonly used to reflect the severity of the diabetic state.
Animals used for IGF-1 sensitivity (n=6/group) and wound healing (n=8) studies were partitioned into five study groups including control, diabetic, hypercortisolemic, diabetic+EUK and hypercortisolemic+EUK. The EUK-134 was administered for duration of four weeks before wound induction and it continued during the course of healing.

[3] = tested on: PI3K; experiment: PI3K ELISA kinase assay on fibroblast lysates; assay type: cell-based, rat; details: diabetic, TNF-α- or dexamethasone-exposed cells; co-exposure to EUK-134
Method: (§1) Primary dermal fibroblasts were obtained from dorsal skin of female Goto Kakizaki (GK, age 12-15 months) rats, a model for non-obese type 2 diabetes, and their Wistar control counterparts. After sterilization in povidine solution, rat skin was washed in sterile water and rinsed in 70% ethanol in PBS. Epidermis and dermis were separated following overnight incubation in 0.25% trypsine/EDTA at 4 C. Dermis was cut into small pieces and incubated in Dulbecco's modified Eagle medium (DMEM; Invitrogen) containing collagenase (250 U/ml; Sigma) for thirty min at 37 C in 5% CO2 with constant agitation. The sections were triturated vigorously to release fibroblasts, which were collected by centrifugation. The cell pellet was washed two times with PBS, re-suspended in complete medium (DMEM supplemented with 10% fetal calf serum, penicillin (100 U/ml), streptomycin (100 μg/ml)), 2 mM L-glutamine and 10 mM HEPES) and then cultured under a standard condition.
(§2) A hypercortisolemic state was mimicked by exposing control fibroblasts to dexamethasone (Dexa, Sigma) administered at 20 ng/ml every other day for a duration of 8 days. […] The concentration of IGF-1 (50 ng/ml, Peprotech) was determined by prior dose response experiment.
PI3K activity was measured using PI3K ELISA (Echelon Biosciences Inc). […]

[4] = tested on: IRS-1; experiment: IRS-1 Ser307 phosphorylation in dermal fibroblasts; assay type: cell-based, rat; details: diabetic, TNF-α- or dexamethasone-exposed cells; EUK-134
Method: as §1, with “The cell pellet was washed two times with PBS, re-suspended in complete medium (DMEM supplemented with 10% fetal calf serum, penicillin (100 U/ml), streptomycin (100 μg/ml)), 2 mM L-glutamine and 10 mM HEPES) and then cultured under a standard condition.” left out
as §2
Levels/activities of key intracellular molecules in the IGF-1 signaling cascade including IRS-1, IRS-1 Tyr-p-612, PI3K-p85α, IRS-1 Ser-p (307), PI3K, Akt, p-Akt, INK and p-JNK were assessed using western blotting/immunoprecipitation and commercially available ELISA-based assays. […]

[5] = tested on: COL1A1 mRNA; experiment: Real time PCR of COL1A1 mRNA in fibroblasts; assay type: cell-based, rat; details: diabetic, TNF-α- or dexamethasone-exposed cells; EUK-134
Method: as §1
A hypercortisolemic state was mimicked by exposing control fibroblasts to dexamethasone (Dexa, Sigma) administered at 20 ng/ml every other day for a duration of 8 days. Similarly, the state of low-grade inflammation in fibroblasts was recapitulated experimentally by exposing these cells to TNF-α (4 ng/ml every day for 4 days). […] The concentration of IGF-1 (50 ng/ml, Peprotech) was determined by prior dose response experiment. […]

[6] = tested on: dermal fibroblasts; experiment: Radiolabelled proline uptake assay (collagen synthesis) in fibroblasts; assay type: cell-based, rat; details: diabetic, TNF-α- or dexamethasone-exposed cells; EUK-134
Method: as §1, with “The cell pellet was washed two times with PBS, re-suspended in complete medium (DMEM supplemented with 10% fetal calf serum, penicillin (100 U/ml), streptomycin (100 μg/ml)), 2 mM L-glutamine and 10 mM HEPES) and then cultured under a standard condition.” left out
as §2
The proliferation and collagen synthesis of cultured fibroblasts were determined using, respectively the 5-bromo-2-deoxyuridine (BrdU) incorporation into DNA and a radiolabelled proline uptake assay.
A radiolabel proline uptake assay was used in the quantification of the rate of collagen synthesis in cultured fibroblasts derived from various experimental groups. […]

[7] = dexamethasone-treated (hypercortisolemic) rats + EUK-134 12.5 mg/kg ip every other day
[8] = diabetic (GK) rats + EUK-134 12.5 mg/kg ip every other day

Which results are given for `COc1cccc(C=NCCN=Cc2cccc(OC)c2[O-])c1[O-].[Cl-].[Mn+3]` [EUK-134]?
effect on cell viability (WST-based technique) [1]: minimum effect on cell viability; FBG (fasting blood glucose) [2, 7]: 81 ± 12 mg/dL; FFA (free fatty acid) [2, 7]: 327 ± 16 µM; FPI (fasting plasma insulin) [2, 7]: 0.58 ± 0.052 ng/mL; FBG (fasting blood glucose) [2, 8]: 122 ± 18 mg/dL; FFA (free fatty acid) [2, 8]: 353 ± 18 µM; FPI (fasting plasma insulin) [2, 8]: 0.66 ± 0.05 ng/mL; abnormalities regarding lipid and carbohydrate profiles ([2]; diabetic and hypercortisolemic rats, chronic treatment with ROS suppressors): ameliorated; PI3K enzymatic activity [3]: partially restored; phosphorylation of IRS-1 at Ser307 [4]: diminishes Ser307 phosphorylation to levels comparable to the basal level in normal fibroblasts; collagen mRNA synthesis [5]: returns it to approximately control levels; proline uptake (collagen synthesis) [6]: returns it to approximately control levels

Reference: patent US8637461B2, “Method of diagnosing and treating oxidative stress-impaired wound healing” (Kuwait University, priority 2011, dated 2014)
